One data set deals with Colinus virginianus. Conditions: acute, oral, mortality.
In another data set the test system is Pimephales promelas. Conditions: chronic/long-term; duration: 40 days; time to hatch.
For a further data set, the system named is Bibionidae. Conditions: chronic/long-term; duration: 28 days.
In another data set the test system is Apis mellifera. Conditions: acute, duration: 48 hours, mortality.
A further data set deals with Oncorhynchus mykiss. Conditions: acute; duration: 96 hours; mortality.
The test system of another data set is Rattus norvegicus. Conditions: acute; oral; mortality.
A further data set has as its system Daphnia magna. Conditions: chronic/long-term; duration: 21 days; reproduction.
The next data set relates to Canidae. Conditions: oral, Dog Other, organ weight.
In a further data set the test system is Tagia sp. Conditions: acute; duration: 14 days; mortality.
The subject of the next data set is Typhlodromus pyri. The experiment in a line: LR50; higher = less toxic. Conditions: chronic/long-term; duration: 7 days; mortality.
Another data set deals with Aphidius rhopalosiphi. Put plainly: LR50; higher = less toxic. The settings on record: chronic/long-term; duration: 7 days; mortality.

Values after ≈ are worked out from the molar mass of the structure shown.

By NOAEL is commonly meant the highest tested level that showed no adverse finding.

As to `COc1cc(OC)n2nc(NS(=O)(=O)c3c(C(F)(F)F)ccnc3OC)nc2n1` [Pyroxsulam], the LC50 with Colinus virginianus (diet) was more than 988 mg/kg-day; in the data set on Oncorhynchus mykiss, 5.9 µg/mL (≈ 13.6 µM); in the data set with Tagia sp., more than 10000 mg/kg. In addition, the LD50 was more than 2000 mg/kg-day in the data set with Colinus virginianus; more than 2000 mg/kg-day in the data set on Anas platyrhynchos (acute, oral, unspecified, mortality); more than 100 µg/piece in the data set on Apis mellifera (dermal); more than 107 µg/piece in the data set on Apis mellifera (oral, unspecified); more than 2000 mg/kg-day in the data set with Rattus norvegicus. For the same molecule, the NOAEL in the data set with Anas platyrhynchos (reproductive) turned out to be 46.3 mg/kg-day; with Canidae (chronic, duration: 1 years), 89 mg/kg-day; in the data set with Canidae (subchronic, duration: 90 days) it was 100 mg/kg-day. Besides, the NOEC with Pimephales promelas was found to be 10.1 mg/L; in the data set with Bibionidae it was 100 mg/L; in the data set on Daphnia magna it was 10.4 mg/L. For the same molecule, the LR50 with Typhlodromus pyri and in the data set on Aphidius rhopalosiphi was more than 37.5 g/ha each time.

The record behind these values is EPA's ToxValDB 9.5 (doi:10.2903/j.efsa.2013.3182).
